Where a SMILES comes first, the peptide text is derived from it.
Biological target: T1, NK-2 tachykinin receptor (Rattus norvegicus, UniProt P16610)
T1 construct: The vas deferens is dissected free from the surrounding connective tissue and suspended in a 3 ml organ bath; from tissue; host or cells: isolated rat vas deferens (male Wistar rat), longitudinal muscle
T1 sequence (P16610 1-390): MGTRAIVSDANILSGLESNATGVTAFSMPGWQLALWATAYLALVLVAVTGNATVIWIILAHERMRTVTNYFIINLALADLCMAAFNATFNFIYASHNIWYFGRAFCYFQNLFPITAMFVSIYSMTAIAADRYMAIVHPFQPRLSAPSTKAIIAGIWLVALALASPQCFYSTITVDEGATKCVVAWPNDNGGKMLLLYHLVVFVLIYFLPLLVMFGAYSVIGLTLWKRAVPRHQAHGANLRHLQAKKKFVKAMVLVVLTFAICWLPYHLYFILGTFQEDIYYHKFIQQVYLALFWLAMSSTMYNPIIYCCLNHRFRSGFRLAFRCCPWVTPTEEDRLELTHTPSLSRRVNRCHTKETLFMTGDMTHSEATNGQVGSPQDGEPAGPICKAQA
Assay: Isolated rat vas deferens preparation: antagonism of eledoisin-induced increase in field-stimulated twitch
Type: cell-based
Conditions: isolated Wistar rat vas deferens, eledoisin as standard agonist, pA2 (-logKb) estimated from dose ratio; for Kb: read-out: pA2 (against eledoisin) (converted)
Description: The activity of the compounds of the accompanying Examples as tachykinin receptor antagonists was evaluated using the following method:
The tachykinin receptor present in the longitudinal muscle of the rat vas deferens has been characterised, using natural and synthetic tachykinins, as `NK-2`. This preparation is therefore used to determine the selectivity and potency of the peptides for this receptor sub-type.
Male Wistar rats weighing 200-300 g are killed by decapitation. The vas deferens is dissected free from the surrounding connective tissue and suspended in a 3 ml organ bath under an initial resting tension of 1 g. The tissue is maintained at 37° C. in modified KREBS HENSALEIT solution (NaCl 118.4, KCl 4.7, CaCl2 2.5, KH2 PO4 1.18, MgSO4.7H2 O 1.19, NaHCO3 25.0, D-glucose 11.1 mM), which is continuously gassed with a mixture of 95% O2 and 5% CO2. Field stimulated responses are elicited by trains of pulses delivered for 1 second every 20 seconds (7 Hz, 70-80 V, individual pulse duration 0.5 ms). […] Contractions remain reasonably constant for 3-4 hours with no spontaneous changes in resting tension. A dose-cycle of 10-15 minutes is used, drug contact time being about 3-5 minutes.
In all experiments eledoisin is used as a standard agonist. Eledoisin, in the dose range 10^-8 -3×10^-6 M, produces a dose-related increase in twitch height and, to a lesser extent, basal tension. A second dose-response curve is then constructed to the peptide under investigation.
To determine the potency of each peptide as an NK-2 antagonist, the test compound is added to the bathing medium, at an appropriate concentration, 20-30 minutes before the first dose of the second eledoisin dose-response curve. Thereafter addition of the test compound 5-10 minutes before the eledoisin dose is sufficient. The percentage increase in twitch produced by eledoisin in the presence and absence of the antagonist is expressed as a percentage of the maximum response of each individual dose-response curve. Thus all dose-response curves have the same maximum. From the dose ratio an estimate of the pA2 (-logKb) for each test compound can be determined:
pA2 =log[(DR-1)/(antagonist conc.)]

| Compound | Kb | pA2 (against eledoisin) |
| --- | --- | --- |
| CSCC[C@@H]1NC(=O)[C@H](CC(C)C)NC(=O)CNC(=O)[C@H](Cc2ccccc2)NC(=O)[C@H](Cc2c[nH]c3ccccc23)NC(=O)[C@H](CCC(N)=O)NC1=O [Example 3, Cyclo (Gln-Trp-Phe-Gly-Leu-Met)] (cyclo(FGLMQW)) | 10 nM | – |
| CSCC[C@@H]1NC(=O)[C@H](CC(C)C)N2CC[C@@H](NC(=O)[C@H](Cc3ccccc3)N(C)C(=O)[C@@H](Cc3c[nH]c4ccccc34)NC(=O)[C@H](CCC(N)=O)NC(=O)[C@H](CCSC)NC(=O)[C@H](CC(C)C)N3CC[C@@H](NC(=O)[C@H](Cc4ccccc4)N(C)C(=O)[C@@H](Cc4c[nH]c5ccccc45)NC(=O)[C@H](CCC(N)=O)NC1=O)C3=O)C2=O [Example 5b, cyclo (Gln-D-Trp-(N-Me)Phe-(R)Gly[ANC-2]Leu-Met2] | 7940 nM | – |
| Ac-LMQWFG-NH2 [Example 6, Acetyl-Leu-Met-Gln-Trp-Phe-Gly-NH2] | 158 nM | – |
| Cyclo(Gln-Npa-Phe-(R)Gly[ANC-2]Leu-Met) [Example 2] | – | 5.6 |
